Here are results for 3 molecules from ChEMBL document CHEMBL1158733, “Iso-, nor-, and dinor-spiculoic acids A, polyketides from the marine sponge Plakortis zyggompha” (2005).

Active and inactive are the calls of the source. No cut-off for these calls is given here. Some results are limits rather than exact numbers.

Holding throughout (type): functional
One test relates to A549. Nature of the test: Cytotoxicity against human A549 cells SRB assay.
The next test relates to HT-29. Nature of the test: Cytotoxicity against human HT-29 cells SRB assay.
The next test has as its system MDA-MB-231. Nature of the test: Cytotoxicity against human MDA-MB-231 cells SRB assay.

For the molecule `CCC1=C[C@](/C=C/c2ccccc2)(CC)[C@@](CC)(C(=O)O)[C@H]2[C@H]1[C@@H](CC)C(=O)[C@@H]2C` [ISOSPICULOIC ACID A], the 50% growth inhibitory concentration (GI50) in the test on A549 is 15 µM; in the test on HT-29, 15 µM; in the test on MDA-MB-231, greater than 25 µM.

Consider `CCC1=C[C@](/C=C/c2ccccc2)(CC)[C@@](CC)(C(=O)O)[C@H]2[C@H]1[C@@H](C)C(=O)[C@@H]2C` [NOR-SPICULOIC ACID A], for which the figures for the GI50 in the test on A549, with HT-29 and in the test on MDA-MB-231 were 15 µM, 15 µM and greater than 25 µM, respectively.

With `CC[C@@]1(/C=C/c2ccccc2)C=C(C)[C@H]2[C@@H]([C@@H](C)C(=O)[C@@H]2C)[C@]1(CC)C(=O)O`, the result in the test on A549, in the test with HT-29 and in the test on MDA-MB-231 was inactive.
